Consider 3 compounds from patent publication US20080070888A1, “AZETIDINE AND AZETIDONE DERIVATIVES USEFUL IN TREATING PAIN AND DISORDERS OF LIPID METABOLISM” (priority 2006, published 2008).

pIC50: −log10 of the molar value. Where a name gives a salt, the structure may show the parent alone.

In the test the target is T1, CaV3.2 (Homo sapiens, UniProt O95180).
T1 construct: expressed in transfected cells; host or cells: HEK cells, stably transfected; human Kir2.1 co-expressed
T1 sequence (O95180 whole entry): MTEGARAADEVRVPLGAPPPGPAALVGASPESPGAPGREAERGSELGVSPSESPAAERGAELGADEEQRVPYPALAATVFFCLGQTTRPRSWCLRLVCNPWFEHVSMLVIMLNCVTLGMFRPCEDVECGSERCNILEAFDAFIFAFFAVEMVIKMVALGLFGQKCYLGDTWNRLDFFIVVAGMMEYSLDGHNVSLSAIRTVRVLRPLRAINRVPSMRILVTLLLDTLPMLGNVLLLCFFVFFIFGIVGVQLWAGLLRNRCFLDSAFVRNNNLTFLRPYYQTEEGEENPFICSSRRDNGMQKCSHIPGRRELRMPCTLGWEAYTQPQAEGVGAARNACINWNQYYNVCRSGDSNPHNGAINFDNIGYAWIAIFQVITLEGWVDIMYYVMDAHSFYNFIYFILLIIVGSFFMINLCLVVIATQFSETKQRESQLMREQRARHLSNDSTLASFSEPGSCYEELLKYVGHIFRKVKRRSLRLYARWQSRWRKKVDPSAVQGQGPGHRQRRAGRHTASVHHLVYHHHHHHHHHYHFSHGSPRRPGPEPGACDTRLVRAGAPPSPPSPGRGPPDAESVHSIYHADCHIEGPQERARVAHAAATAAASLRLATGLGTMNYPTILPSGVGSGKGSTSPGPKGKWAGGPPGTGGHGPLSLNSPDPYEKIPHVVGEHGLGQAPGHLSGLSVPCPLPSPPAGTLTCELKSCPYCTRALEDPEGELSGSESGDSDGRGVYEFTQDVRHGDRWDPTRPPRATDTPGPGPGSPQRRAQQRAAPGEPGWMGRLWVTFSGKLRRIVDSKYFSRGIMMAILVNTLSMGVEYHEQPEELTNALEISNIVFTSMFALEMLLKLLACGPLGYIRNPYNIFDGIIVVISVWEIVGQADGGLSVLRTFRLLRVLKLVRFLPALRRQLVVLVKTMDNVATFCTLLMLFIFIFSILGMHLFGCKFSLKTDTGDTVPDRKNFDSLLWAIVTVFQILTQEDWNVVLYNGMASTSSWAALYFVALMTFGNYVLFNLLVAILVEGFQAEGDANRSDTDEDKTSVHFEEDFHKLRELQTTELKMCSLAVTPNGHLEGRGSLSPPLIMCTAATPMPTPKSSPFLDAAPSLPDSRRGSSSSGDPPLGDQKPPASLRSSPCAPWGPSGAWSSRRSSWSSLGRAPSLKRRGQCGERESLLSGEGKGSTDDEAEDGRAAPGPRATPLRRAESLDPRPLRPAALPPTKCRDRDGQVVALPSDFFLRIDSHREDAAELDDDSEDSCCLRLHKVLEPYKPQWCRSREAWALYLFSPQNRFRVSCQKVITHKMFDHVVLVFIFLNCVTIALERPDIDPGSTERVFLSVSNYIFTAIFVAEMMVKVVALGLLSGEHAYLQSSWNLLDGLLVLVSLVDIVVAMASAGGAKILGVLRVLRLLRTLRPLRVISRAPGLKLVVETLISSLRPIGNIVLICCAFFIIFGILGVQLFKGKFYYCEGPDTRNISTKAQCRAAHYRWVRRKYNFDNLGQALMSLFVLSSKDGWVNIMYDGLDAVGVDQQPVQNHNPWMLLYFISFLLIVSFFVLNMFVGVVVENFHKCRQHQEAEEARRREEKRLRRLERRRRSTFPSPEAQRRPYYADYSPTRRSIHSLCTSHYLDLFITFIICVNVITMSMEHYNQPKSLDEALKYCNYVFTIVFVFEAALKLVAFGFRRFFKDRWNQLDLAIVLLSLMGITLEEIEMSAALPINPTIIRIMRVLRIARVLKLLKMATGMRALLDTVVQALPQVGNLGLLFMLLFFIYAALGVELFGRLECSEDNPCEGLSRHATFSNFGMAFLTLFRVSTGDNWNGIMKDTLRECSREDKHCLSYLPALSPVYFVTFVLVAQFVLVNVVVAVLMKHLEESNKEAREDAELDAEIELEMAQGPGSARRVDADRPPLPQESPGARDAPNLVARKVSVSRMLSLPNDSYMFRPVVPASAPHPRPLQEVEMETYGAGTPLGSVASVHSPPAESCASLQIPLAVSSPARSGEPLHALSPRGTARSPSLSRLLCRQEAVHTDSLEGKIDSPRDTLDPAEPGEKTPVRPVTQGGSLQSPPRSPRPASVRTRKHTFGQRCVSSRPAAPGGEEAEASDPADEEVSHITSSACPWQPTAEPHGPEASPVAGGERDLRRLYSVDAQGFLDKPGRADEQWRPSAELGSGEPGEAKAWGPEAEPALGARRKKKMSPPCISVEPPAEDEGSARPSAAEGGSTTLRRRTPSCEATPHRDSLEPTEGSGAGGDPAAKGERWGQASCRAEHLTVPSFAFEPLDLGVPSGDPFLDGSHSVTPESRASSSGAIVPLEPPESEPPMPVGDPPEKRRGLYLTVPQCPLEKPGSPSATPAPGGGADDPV
In words: CaV3.2 assay: functional evaluation of T-type calcium currents (IonWorks HT screen for hCaV3.2 / conventional whole cell patch clamp) in stably transfected HEK cells. Format: cell-based. The text has this:
Functional evaluation of voltage-gated ion channels was used to determine potency and/or single concentration efficacy of proprietary compounds. Two different methodologies were used to measure ion currents: the IonWorks HT (Molecular Devices, Sunnyvale, Calif.) a moderate throughput voltage clamp screening platform that utilizes 96-well compound plates and conventional whole cell patch clamp for lower throughput, higher fidelity determinations.
HEK cells were transiently transfected and then selected for stable heterologous expression of different channel proteins of interest. Calcium channel cell lines expressed a resting potassium current, human Kir2.1, and the pore forming α-subunit of voltage-gated calcium channels. In the case of Cav2.1 cells the auxiliary subunit, β2a, was also expressed. Calcium channel lines that were used to generate the data in this document expressed either human Cav3.2, rat Cav3.2 or human Cav2.1. The human heart sodium channel, hNav1.5, was stably expressed in CHO cells. These cells were licensed from the University of Pennsylvania.
Cell lines were grown at 37° C. in humidified incubators, equilibrated with 95% air/5% CO2. CHO cells were grown in Ham's F-12 medium. HEK cells were grown in DMEM. All media were supplemented with 10% heat-inactivated fetal bovine serum, penicillin, streptomycin and appropriate selection antibiotics (zeocin, geneticin and/or hygromycin). Cells were passaged when 80% confluent or less.
Ionworks Screen for hCaV3.2
The extracellular buffer for experiments using this instrument contained the following (mM) (NaCl 125, HEPES 10, KCl 5.4, CaCl2 1.8, MgCl2 1.8, 0.2 BaCl2 pH 7.35). […]
Experiments were performed at room temperature. […] During this time leak currents were measured during a step to −110 mV (200 milliseconds). […]
T-type currents were measured as the peak inward current minus the current at the end of the 250 msec step to −20 mV. […] After incubation with compound for 10 minutes currents were measured again. […] For each compound, 8-point concentration-effect relationships were measured with ½ log serial dilutions. […]
For orientation: In patch-clamp work, channel activity is measured electrically.
As for `CC(C)N1CC2(CCN(c3nc4cc(F)c(C(F)(F)F)cc4[nH]3)CC2)C1c1ccc(Cl)cc1` (stereo not drawn) [Example 2], the pIC50 was 6.67.
The same measure for `CC(C)N1CC2(CCN(c3ccccn3)CC2)C1c1ccc(Cl)cc1` (stereo not drawn) [Example 3, 1-(4-Chlorophenyl)-2-(1-methylethyl)-7-(2-pyridinyl)-2,7-diazaspiro[3.5]nonane, formic acid salt]: 5.30.
As for `CC(C)N1CC2(CCN(c3ncccn3)CC2)C1c1ccc(Cl)cc1` (stereo not drawn) [Example 4, 1-(4-Chlorophenyl)-2-(1-methylethyl)-7-(2-pyrimidinyl)-2,7-diazaspiro[3.5]nonane, formic acid salt], the figure is 5.06.

In general, pIC50 refers to −log10 of the IC50, conventionally taken in molar units.
